Laboratory results as given in ChEMBL document CHEMBL1909046, “DrugMatrix in vitro pharmacology data”.

What was measured:
[1] = DRUGMATRIX: GABAA, Flunitrazepam, Central radioligand binding (ligand: [3H] Flunitrazepam); format: cell membranes, Rattus norvegicus, Wistar, Brain, Membrane; conditions: Not Active = under 50% inhibition at 10 µM
[2] = DRUGMATRIX: Calcium Channel Type L, Dihydropyridine radioligand binding (ligand: [3H] Nitrendipine); format: cell membranes, Rattus norvegicus, Wistar, Cerebral cortex, Membrane; conditions: Not Active = under 50% inhibition at 10 µM
Carbonic anhydrase 2 = Carbonic anhydrase 2 (Homo sapiens, UniProt P00918); assay: DRUGMATRIX: Carbonic Anhydrase II enzyme inhibition (substrate: 4-Nitrophenyl acetate (4-NPA)); format: tissue-based, Erythrocyte; conditions: erythrocyte; Not Active = under 50% inhibition at 10 µM
[3] = DRUGMATRIX: Glutamate, Kainate radioligand binding (ligand: [3H] Kainic acid); format: cell membranes, Rattus norvegicus, Wistar, Brain, Membrane; conditions: Not Active = under 50% inhibition at 10 µM
[4] = target: Tyrosine-protein kinase Fyn (Homo sapiens, UniProt P06241); assay: biochemical; format: cell-based, Insect cells; conditions: insect cells;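 note: enzymatic inhibition of Fyn kinase activity measured with Poly(Glu:Tyr) as the phosphorylation substrate; in other assays of this panel Not Active means under 50% inhibition at 10 µM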
[5] = target: Aldo-keto reductase family 1 member B1 (Rattus norvegicus, UniProt P07943); format: tissue-based, Lens of camera-type eye;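 note: inhibition of aldose reductase enzyme activity, measured with DL-glyceraldehyde as the substrate; in other assays of this panel Not Active means under 50% inhibition at 10 µM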
D(1A) dopamine receptor = D(1A) dopamine receptor (Homo sapiens, UniProt P21728); assay: DRUGMATRIX: Dopamine D1 radioligand binding (ligand: [3H] SCH-23390); format: cell membranes, CHO, Membrane; conditions: cho; Not Active = under 50% inhibition at 10 µM
[6] = target: Mitogen-activated protein kinase 14 (Homo sapiens, UniProt Q16539); design: species or system Escherichia coli;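 note: inhibition of p38alpha enzyme activity in a biochemical kinase assay, with myelin basic protein serving as substrate; in other assays of this panel Not Active means under 50% inhibition at 10 µM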
[7] = DRUGMATRIX: Glutamate, AMPA radioligand binding (ligand: [3H] AMPA); format: cell membranes, Rattus norvegicus, Wistar, Cerebral cortex, Membrane; conditions: Not Active = under 50% inhibition at 10 µM
Progesterone receptor = target: T1, Progesterone receptor (Bos taurus, UniProt Q690N0); assay: DRUGMATRIX: Progesterone radioligand binding (ligand: [3H] R-5020); format: tissue-based, Uterus; conditions: Not Active = under 50% inhibition at 10 µM
T1 sequence (Q690N0 whole entry): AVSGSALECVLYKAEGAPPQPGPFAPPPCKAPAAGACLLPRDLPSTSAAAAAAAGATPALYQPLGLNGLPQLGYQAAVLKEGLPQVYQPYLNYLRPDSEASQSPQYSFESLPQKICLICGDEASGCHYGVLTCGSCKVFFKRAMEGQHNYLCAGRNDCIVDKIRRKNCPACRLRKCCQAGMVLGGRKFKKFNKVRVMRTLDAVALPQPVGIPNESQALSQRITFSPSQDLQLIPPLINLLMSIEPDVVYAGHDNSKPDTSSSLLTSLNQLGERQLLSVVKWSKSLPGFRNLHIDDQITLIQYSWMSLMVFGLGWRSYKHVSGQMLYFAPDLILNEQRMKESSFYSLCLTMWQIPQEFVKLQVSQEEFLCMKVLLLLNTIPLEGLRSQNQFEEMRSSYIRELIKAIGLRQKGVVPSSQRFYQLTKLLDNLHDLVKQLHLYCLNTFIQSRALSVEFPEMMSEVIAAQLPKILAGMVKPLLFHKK

D(3) dopamine receptor = D(3) dopamine receptor (Homo sapiens, UniProt P35462); assay: DRUGMATRIX: Dopamine D3 radioligand binding (ligand: [3H] Spiperone); format: cell membranes, CHO, Membrane; conditions: cho
Melanocortin receptor 3 = Melanocortin receptor 3 (Homo sapiens, UniProt P41968); format: cell membranes, Membrane; conditions: hek293; note: in other assays of this panel Not Active means under 50% inhibition at 10 µM
Substance-P receptor = Substance-P receptor (Homo sapiens, UniProt P25103); format: cell membranes, CHO, Membrane; conditions: cho; note: in other assays of this panel Not Active means under 50% inhibition at 10 µM
[8] = DRUGMATRIX: Phorbol Ester radioligand binding (ligand: [3H] PDBu); format: cell membranes, Mus musculus, ICR, Brain, Membrane; conditions: Not Active = under 50% inhibition at 10 µM
Interstitial collagenase = target: T2, Interstitial collagenase (Homo sapiens, UniProt P03956); format: tissue-based, Rheumatoid synovial fibroblasts
T2 sequence (P03956 whole entry): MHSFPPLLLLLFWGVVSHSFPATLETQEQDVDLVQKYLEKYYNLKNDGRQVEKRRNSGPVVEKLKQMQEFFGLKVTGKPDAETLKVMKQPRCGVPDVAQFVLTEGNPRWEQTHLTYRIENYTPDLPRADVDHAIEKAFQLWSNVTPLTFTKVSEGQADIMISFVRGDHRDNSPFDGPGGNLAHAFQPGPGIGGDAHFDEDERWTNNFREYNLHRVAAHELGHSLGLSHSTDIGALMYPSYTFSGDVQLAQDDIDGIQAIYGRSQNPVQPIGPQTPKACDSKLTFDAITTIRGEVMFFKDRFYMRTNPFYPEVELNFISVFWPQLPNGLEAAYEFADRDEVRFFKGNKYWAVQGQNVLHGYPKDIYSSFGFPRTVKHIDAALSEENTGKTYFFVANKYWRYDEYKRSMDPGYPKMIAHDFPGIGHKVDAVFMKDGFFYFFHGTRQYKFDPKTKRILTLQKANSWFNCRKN

[9] = DRUGMATRIX: Serotonin (5-Hydroxytryptamine) 5-HT3 radioligand binding (ligand: [3H] GR-65630); format: cell membranes, Membrane; conditions: hek293; Not Active = under 50% inhibition at 10 µM
Adenosine receptor A3 = target: T3, Adenosine receptor A3 (Homo sapiens, UniProt P0DMS8); format: cell membranes, CHO-K1, Membrane; conditions: cho-k1
T3 sequence (P0DMS8 whole entry): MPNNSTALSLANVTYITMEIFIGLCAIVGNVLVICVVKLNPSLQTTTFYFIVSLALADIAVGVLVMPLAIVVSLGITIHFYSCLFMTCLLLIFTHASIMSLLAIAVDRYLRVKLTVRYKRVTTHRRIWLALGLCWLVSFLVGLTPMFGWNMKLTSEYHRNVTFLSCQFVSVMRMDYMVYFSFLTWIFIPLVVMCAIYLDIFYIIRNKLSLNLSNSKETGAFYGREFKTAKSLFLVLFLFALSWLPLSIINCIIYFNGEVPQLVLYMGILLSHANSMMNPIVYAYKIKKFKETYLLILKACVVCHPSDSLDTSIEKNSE

[10] = target: T4, C-X-C chemokine receptor type 1 (Homo sapiens, UniProt P25024); note: in other assays of this panel Not Active means under 50% inhibition at 10 µM
T4 sequence (P25024 whole entry): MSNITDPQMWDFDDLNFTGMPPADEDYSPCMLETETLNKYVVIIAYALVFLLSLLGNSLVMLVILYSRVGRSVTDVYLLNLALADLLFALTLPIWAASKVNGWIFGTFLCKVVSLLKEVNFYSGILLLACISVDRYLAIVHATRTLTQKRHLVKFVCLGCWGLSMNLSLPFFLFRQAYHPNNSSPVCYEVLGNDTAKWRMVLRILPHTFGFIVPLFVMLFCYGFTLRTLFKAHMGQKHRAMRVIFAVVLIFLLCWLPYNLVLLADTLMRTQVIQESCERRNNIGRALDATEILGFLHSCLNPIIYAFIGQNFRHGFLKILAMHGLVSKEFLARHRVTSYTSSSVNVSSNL

[11] = DRUGMATRIX: GABAA, Muscimol, Central radioligand binding (ligand: [3H] Muscimol); format: cell membranes, Rattus norvegicus, Wistar, Brain, Membrane; conditions: Not Active = under 50% inhibition at 10 µM
[12] = target: Delta-type opioid receptor (Homo sapiens, UniProt P41143); format: cell membranes, HEK293, Membrane; conditions: hek293; note: in other assays of this panel Not Active means under 50% inhibition at 10 µM
Delta-type opioid receptor, sequence (P41143 whole entry): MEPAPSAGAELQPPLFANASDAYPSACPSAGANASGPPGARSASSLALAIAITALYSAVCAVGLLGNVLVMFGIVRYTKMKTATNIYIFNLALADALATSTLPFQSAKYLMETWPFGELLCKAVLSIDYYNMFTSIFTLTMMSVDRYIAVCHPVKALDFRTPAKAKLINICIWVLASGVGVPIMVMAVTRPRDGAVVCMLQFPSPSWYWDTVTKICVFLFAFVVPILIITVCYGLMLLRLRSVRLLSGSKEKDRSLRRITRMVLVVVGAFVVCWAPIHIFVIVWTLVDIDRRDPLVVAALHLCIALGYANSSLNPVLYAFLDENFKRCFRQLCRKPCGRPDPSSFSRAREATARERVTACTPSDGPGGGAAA

Melanocortin receptor 3, sequence (P41968 whole entry): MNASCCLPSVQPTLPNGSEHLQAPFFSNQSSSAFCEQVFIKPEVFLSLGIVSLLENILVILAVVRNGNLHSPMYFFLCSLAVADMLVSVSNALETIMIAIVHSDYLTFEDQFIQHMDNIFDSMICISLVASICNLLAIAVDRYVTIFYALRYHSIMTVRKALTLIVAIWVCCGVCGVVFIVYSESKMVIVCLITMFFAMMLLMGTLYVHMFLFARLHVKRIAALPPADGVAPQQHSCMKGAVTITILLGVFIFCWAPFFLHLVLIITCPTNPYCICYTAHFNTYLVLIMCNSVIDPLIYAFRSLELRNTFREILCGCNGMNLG
Substance-P receptor, sequence (P25103 whole entry): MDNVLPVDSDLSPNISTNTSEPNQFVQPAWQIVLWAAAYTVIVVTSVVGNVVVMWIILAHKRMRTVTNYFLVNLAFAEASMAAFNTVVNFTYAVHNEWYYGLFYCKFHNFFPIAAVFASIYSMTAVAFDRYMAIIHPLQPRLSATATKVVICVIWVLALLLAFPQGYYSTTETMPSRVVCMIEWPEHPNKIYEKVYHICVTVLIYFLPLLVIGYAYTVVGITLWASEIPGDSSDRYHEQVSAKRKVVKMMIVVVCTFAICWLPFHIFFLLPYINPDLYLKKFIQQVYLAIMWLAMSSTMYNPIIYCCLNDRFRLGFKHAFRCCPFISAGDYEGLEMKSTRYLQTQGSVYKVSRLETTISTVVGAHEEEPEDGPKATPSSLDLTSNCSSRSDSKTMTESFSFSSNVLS
D(1A) dopamine receptor, sequence (P21728 whole entry): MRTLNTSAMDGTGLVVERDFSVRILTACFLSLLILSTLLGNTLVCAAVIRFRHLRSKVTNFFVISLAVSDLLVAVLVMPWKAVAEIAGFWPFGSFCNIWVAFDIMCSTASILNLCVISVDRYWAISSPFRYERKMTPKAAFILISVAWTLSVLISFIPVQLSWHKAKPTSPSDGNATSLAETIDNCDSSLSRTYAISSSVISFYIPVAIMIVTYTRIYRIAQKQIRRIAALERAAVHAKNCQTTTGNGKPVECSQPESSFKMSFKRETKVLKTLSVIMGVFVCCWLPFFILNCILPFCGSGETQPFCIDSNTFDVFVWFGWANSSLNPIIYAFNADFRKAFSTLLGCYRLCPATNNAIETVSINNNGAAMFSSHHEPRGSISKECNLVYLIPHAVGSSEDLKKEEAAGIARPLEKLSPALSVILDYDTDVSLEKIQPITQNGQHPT
D(3) dopamine receptor, sequence (P35462 whole entry): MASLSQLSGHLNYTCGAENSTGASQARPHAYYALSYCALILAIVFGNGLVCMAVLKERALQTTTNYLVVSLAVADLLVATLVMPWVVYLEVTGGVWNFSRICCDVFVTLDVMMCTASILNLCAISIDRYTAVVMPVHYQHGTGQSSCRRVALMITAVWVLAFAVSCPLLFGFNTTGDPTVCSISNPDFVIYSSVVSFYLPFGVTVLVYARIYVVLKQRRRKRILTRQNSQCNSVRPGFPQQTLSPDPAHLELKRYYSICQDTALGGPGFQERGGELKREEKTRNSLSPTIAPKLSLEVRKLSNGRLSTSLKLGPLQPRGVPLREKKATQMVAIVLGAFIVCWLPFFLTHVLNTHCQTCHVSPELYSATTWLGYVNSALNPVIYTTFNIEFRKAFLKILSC
Mitogen-activated protein kinase 14, sequence (Q16539 whole entry): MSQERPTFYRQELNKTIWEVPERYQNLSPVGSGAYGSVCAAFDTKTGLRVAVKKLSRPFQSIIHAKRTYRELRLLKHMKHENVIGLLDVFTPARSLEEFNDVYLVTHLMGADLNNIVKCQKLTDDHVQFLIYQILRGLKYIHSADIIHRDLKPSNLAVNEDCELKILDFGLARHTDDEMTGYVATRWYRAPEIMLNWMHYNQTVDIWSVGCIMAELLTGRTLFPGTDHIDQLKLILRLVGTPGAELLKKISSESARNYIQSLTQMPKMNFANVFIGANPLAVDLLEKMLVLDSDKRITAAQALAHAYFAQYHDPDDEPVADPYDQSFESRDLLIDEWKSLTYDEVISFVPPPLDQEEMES
Tyrosine-protein kinase Fyn, sequence (P06241 whole entry): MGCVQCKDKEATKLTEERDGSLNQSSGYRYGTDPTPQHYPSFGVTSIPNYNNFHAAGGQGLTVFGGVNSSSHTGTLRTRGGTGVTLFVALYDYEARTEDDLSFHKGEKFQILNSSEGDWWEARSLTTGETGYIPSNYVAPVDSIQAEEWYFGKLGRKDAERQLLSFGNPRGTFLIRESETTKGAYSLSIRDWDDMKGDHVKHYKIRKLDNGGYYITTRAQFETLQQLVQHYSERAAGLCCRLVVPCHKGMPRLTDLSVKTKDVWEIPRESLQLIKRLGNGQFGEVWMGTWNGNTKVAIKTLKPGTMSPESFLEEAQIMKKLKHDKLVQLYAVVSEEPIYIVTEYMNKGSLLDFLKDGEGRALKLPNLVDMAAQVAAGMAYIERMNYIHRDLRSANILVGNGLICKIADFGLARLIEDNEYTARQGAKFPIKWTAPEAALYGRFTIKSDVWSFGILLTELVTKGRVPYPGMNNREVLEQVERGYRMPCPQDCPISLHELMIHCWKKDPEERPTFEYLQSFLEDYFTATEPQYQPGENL

Structure (SMILES)	IC50 [1]	Ki [1]	IC50 [2]	Ki [2]	IC50 (Carbonic anhydrase 2)	IC50 [3]	Ki [3]	IC50 [4]	IC50 [5]	IC50 (D(1A) dopamine receptor)	IC50 [6]	IC50 [7]	Ki [7]	IC50 (D(3) dopamine receptor)	IC50 (Melanocortin receptor 3)	IC50 (Substance-P receptor)	IC50 [8]	Ki [8]	IC50 (Interstitial collagenase)	IC50 [9]	further results
CC(=O)[C@H]1CC[C@H]2[C@@H]3CCC4=CC(=O)CC[C@]4(C)[C@H]3CC[C@]12C [PROGESTERONE]	Not Active	Not Active	Not Active	Not Active	Not Active	Not Active	Not Active	Not Active	Not Active	Not Active	Not Active	Not Active	Not Active	Not Active	Not Active	Not Active	Not Active	Not Active	Not Active	Not Active	IC50 (Progesterone receptor; read-out: IC50): 28 nM; Ki (Progesterone receptor; read-out: Ki): 3.62 nM; Ki [9]: Not Active; IC50 (Adenosine receptor A3): Not Active; IC50 [10]: Not Active; IC50 [11]: Not Active; Ki [11]: Not Active; IC50 [12]: Not Active
Nc1ccc(S(=O)(=O)Nc2ccnn2-c2ccccc2)cc1 [SULFAPHENAZOLE]	Not Active	Not Active	Not Active	Not Active	Not Active	Not Active	Not Active	Not Active	Not Active	Not Active	Not Active	Not Active	Not Active	Not Active	Not Active	Not Active	Not Active	Not Active	Not Active	Not Active	IC50 (Progesterone receptor): Not Active; Ki [9]: Not Active; IC50 (Adenosine receptor A3): Not Active; IC50 [10]: Not Active; IC50 [11]: Not Active; Ki [11]: Not Active; IC50 [12]: Not Active
CC(CCc1ccccc1)NCC(O)c1ccc(O)c(C(N)=O)c1 (stereo unspecified) [LABETALOL]	Not Active	Not Active	Not Active	Not Active	Not Active	Not Active	Not Active	Not Active	Not Active	Not Active	Not Active	Not Active	Not Active	Not Active	Not Active	Not Active	Not Active	Not Active	Not Active	Not Active	IC50 (Progesterone receptor): Not Active; Ki [9]: Not Active; IC50 (Adenosine receptor A3): Not Active; IC50 [10]: Not Active; IC50 [11]: Not Active; Ki [11]: Not Active; IC50 [12]: Not Active
CC(C)(C)NC(=O)[C@@H]1CN(Cc2cccnc2)CCN1C[C@@H](O)C[C@@H](Cc1ccccc1)C(=O)N[C@H]1c2ccccc2C[C@H]1O.O	Not Active	Not Active	Not Active	Not Active	Not Active	Not Active	Not Active	Not Active	Not Active	Not Active	Not Active	Not Active	Not Active	Not Active	Not Active	Not Active	Not Active	Not Active	Not Active	Not Active	IC50 (Progesterone receptor): Not Active; Ki [9]: Not Active; IC50 (Adenosine receptor A3): Not Active; IC50 [10]: Not Active; IC50 [11]: Not Active; Ki [11]: Not Active; IC50 [12]: Not Active
COc1c(C)c2c(c(O)c1C/C=C(\C)CCC(=O)OCCN1CCOCC1)C(=O)OC2 [MYCOPHENOLATE MOFETIL]	Not Active	Not Active	Not Active	Not Active	Not Active	Not Active	Not Active	Not Active	Not Active	Not Active	Not Active	Not Active	Not Active	Not Active	Not Active	Not Active	Not Active	Not Active	Not Active	Not Active	IC50 (Progesterone receptor): Not Active; Ki [9]: Not Active; IC50 (Adenosine receptor A3): Not Active; IC50 [10]: Not Active; IC50 [11]: Not Active; Ki [11]: Not Active; IC50 [12]: Not Active
